Consider 35 molecules from patent US20230058189A1, “QUINOLIN-4-ONE AND 4(1H)-CINNOLINONE COMPOUNDS AND METHODS OF USING SAME” (Frequency Therapeutics, Inc., priority 2019, published 2023).

The nature of the series: Caco-2 cell permeability assay. The following applies: human, pH 7.4, approximate values; for efflux ratio at 2 h, 10 µM: Caco-2, Papp (B-A)/Papp (A-B); for Papp A→B at 2 h, 10 μM: Caco-2, apical to basolateral. It is filed as in vitro ADME. On the procedure: A Caco-2 cell permeability assay can be used for in vitro prediction of drug permeability and absorption, an important feature for a compound to be useful for methods described herein. The apparent permeability (Papp) of the compounds of the present disclosure were determined in Caco-2 cells to measure the rate of drug transport per surface area of the cell membrane. Further the efflux ratios of the compounds of the present disclosure were measured in Caco-2 cells to determine the apparent permeability coefficient in basolateral to apical direction with respect to the apparent permeability coefficient in apical to basolateral direction.
50 μL and 25 mL of cell culture medium were added to each well of the Transwell insert and reservoir, respectively. The HTS transwell plates were incubated at 37° C., 5% CO2 for 1 hour before cell seeding. Caco-2 cells were diluted to 6.86×10^5 cells/mL with culture medium and 50 μL of cell suspension were dispensed into the filter well of the 96-well HTS Transwell plate. Cells were cultivated for 14-18 days in a cell culture incubator at 37° C., 5% CO295% relative humidity. Cell culture medium was replaced every other day, beginning no later than 24 hours after initial plating.
Medium was removed from the reservoir and each Transwell insert and replaced with prewarmed fresh culture medium. Transepithelial electrical resistance (TEER) across the monolayer was measured using Millicell Epithelial Volt-Ohm measuring system (Millipore, USA). The Plate was returned to the incubator once the measurement was done. The TEER value was calculated according to the following equation: TEER measurement (ohms)×Area of membrane (cm^2)=TEER value (ohm·cm^2).
To prepare the HBSS (25 mM HEPES, pH 7.4), accurately weigh 5.958 g of HEPES and 0.35 g sodium hydrogen carbonate and add into 900 mL of pure water, then sonicate to dissolve the content. Transfer 100 mL of 10× HBSS into the solution, and place the solution on a stirrer, slowly adjust pH with sodium hydrate to 7.4, following with filtering. Add 6 μL of stock solution (10 mM) of test compound or control compound to 24 μL of DMSO into the same well to obtain 2 mM stock solutions. Transfer 3 μL of 2 mM solution into 597 μL of transport buffer in one 96 well plate to prepare the 10 μM compound working solution. Shake the plate at 1000 rpm for 10 min. The final concentration of DMSO in the incubation system was 0.5%. Metoprolol, erythromycin, and cimetidine were used as control compounds.
Assays can be conducted using Caco-2 cells to assay transport of a compound or composition For example, Caco-2 plates prepared as described above were removed from the incubator. Monolayers were washed twice with pre-warmed HBSS (25 mM HEPES, pH 7.4), then the plates were incubated at 37° C. for 30 minutes. To determine the rate of drug transport in the apical to basolateral direction, 108 μL of the working solution was added to the Transwell insert (apical compartment), and 8 μL sample was immediately transferred from the apical compartment to 72 μL transport buffer and 240 μL of acetonitrile containing IS (100 nM alprazolam, 200 nM caffeine and 100 nM tolbutamide) in a new 96-well plate as the initial donor sample (A-B). The samples were then vortexed at 1000 rpm for 10 minutes. The wells in the receiver plate (basolateral compartment) were filled with 300 μL of transport buffer. To determine the rate of drug transport in the basolateral to apical direction, 308 μL of the working solution were added to the receiver plate wells (basolateral compartment), and 8 μL sample was immediately transferred from the basolateral compartment to 72 μL transport buffer and 240 μL of acetonitrile containing IS (100 nM alprazolam, 200 nM caffeine and 100 nM tolbutamide) into a new 96-well plate as the initial donor sample (B-A), then Vortexed at 1000 rpm for 10 minutes. The Transwell insert (apical compartment) was filled with 100 μL of transport buffer. […]

Regarding `CCn1cc(C(=O)O)c(=O)c2c(N)c(F)c(N[C@@H]3CC[C@H]3c3ccccc3)cc21` (relative stereo) [Compound I-13], the efflux ratio at 2 h, 10 µM was 0.53 and the Papp A→B at 2 h, 10 μM was found to be 5.5 ×10⁻⁶ cm/s.
As for `CCn1cc(C(=O)O)c(=O)c2c(N)c(F)c(N[C@@H]3CC[C@@H]3c3ccccc3)cc21` (relative stereo) [Compound I-14], the efflux ratio at 2 h, 10 µM was found to be 0.58 and the Papp A→B at 2 h, 10 μM was determined as 8.6 ×10⁻⁶ cm/s.
For `CCn1cc(C(=O)O)c(=O)c2c(N)c(F)c(N[C@@H]3C[C@@H]3c3ccccc3)cc21` (relative stereo) [Compound I-23] the same measures were 0.69 and 1.1 ×10⁻⁶ cm/s.
As to `CCn1cc(C(=O)O)c(=O)c2c(N)c(F)c(N3CCC(N[C@@H]4C[C@H]4c4ccccc4)CC3)cc21` (relative stereo) [Compound I-26], the efflux ratio at 2 h, 10 µM worked out at 0.85 and the apical-to-basolateral permeability (Papp A→B) at 2 h, 10 μM came to 7.9 ×10⁻⁶ cm/s.
For `CCn1cc(C(=O)O)c(=O)c2c(N)c(F)c(N[C@H]3CC[C@H](N[C@@H]4C[C@H]4c4ccccc4)CC3)cc21` (relative stereo) [Compound I-27] the same measures were 1.96 and 0.94 ×10⁻⁶ cm/s.
For `CCn1cc(C(=O)O)c(=O)c2c(N)c(F)c(N[C@H]3CC[C@@H](N[C@@H]4C[C@H]4c4ccccc4)CC3)cc21` (relative stereo) [Compound I-28] the same measures were 0.48 and 3.1 ×10⁻⁶ cm/s.
On to `CCn1cc(C(=O)O)c(=O)c2c(N)c(F)c(NCCN[C@@H]3C[C@H]3c3ccccc3)cc21` (relative stereo) [Compound I-29], for which the efflux ratio at 2 h, 10 µM is 0.39 and the Papp A→B at 2 h, 10 μM stood at 9.1 ×10⁻⁶ cm/s.
On to `Nc1c(F)c(N[C@@H]2C[C@H]2c2ccccc2)c(F)c2c1c(=O)c(C(=O)O)cn2C1CC1` (relative stereo) [Compound I-32], for which the efflux ratio at 2 h, 10 µM came to 0.47 and the Papp A→B at 2 h, 10 μM came to 4.2 ×10⁻⁶ cm/s.
With `CCn1cc(C#N)c(=O)c2c(N)c(F)c(N[C@@H]3C[C@H]3c3ccccc3)cc21` (relative stereo) [Compound I-38], the efflux ratio at 2 h, 10 µM stood at 0.75 and the Papp A→B at 2 h, 10 μM stood at 1.6 ×10⁻⁶ cm/s.
For `CCn1cc(C(=O)O)c(=O)c2c(N)c(F)c(N(C)CCN[C@H]3C[C@@H]3c3ccccc3)cc21` (relative stereo) [Compound I-50] the same measures were 1.04 and 9.7 ×10⁻⁶ cm/s.
For `CCn1cc(C(=O)O)c(=O)c2c(N)cc(N[C@@H]3C[C@H]3c3ccccc3)cc21` (relative stereo) [Compound I-59] the same measures were 0.58 and 6.4 ×10⁻⁶ cm/s.
For `CCn1cc(C(=O)O)c(=O)c2c(N)c(F)c(Nc3ccc([C@@H]4C[C@H]4N)cc3)cc21` (relative stereo) [Compound I-62] the same measures were 38 and 0.82 ×10⁻⁶ cm/s.
For `CCn1cc(C(=O)O)c(=O)c2c(N)c(F)c(NC3CC(N[C@@H]4C[C@H]4c4ccccc4)C3)cc21` (relative stereo) [Compound I-70], the efflux ratio at 2 h, 10 µM was 1.2 and the Papp A→B at 2 h, 10 μM was found to be 2.4 ×10⁻⁶ cm/s.
For the molecule `CCn1cc(C(=O)O)c(=O)c2c(N)c(F)c(NCCN[C@@H]3C[C@]34CCc3ccccc34)cc21` (relative stereo) [Compound I-81], the efflux ratio at 2 h, 10 µM is 0.59 and the Papp A→B at 2 h, 10 μM turned out to be 5.9 ×10⁻⁶ cm/s.
`CCn1cc(C(N)=O)c(=O)c2c(N)c(F)c(NCCN[C@H]3C[C@@H]3c3ccccc3)cc21` (relative stereo) [Compound I-83]: the efflux ratio at 2 h, 10 µM worked out at 1.3 and the Papp A→B at 2 h, 10 μM stood at 5.1 ×10⁻⁶ cm/s.
As to `CCn1cc(C#N)c(=O)c2c(N)c(F)c(NCCN[C@@H]3C[C@H]3c3ccccc3)cc21` (relative stereo) [Compound I-84], the efflux ratio at 2 h, 10 µM is 2.1 and the Papp A→B at 2 h, 10 μM came to 4.1 ×10⁻⁶ cm/s.
In the case of `Cn1cc(C(=O)O)c(=O)c2c(N)c(F)c(NCCN[C@@H]3C[C@H]3c3ccccc3)cc21` (relative stereo) [Compound I-86], the efflux ratio at 2 h, 10 µM stood at 1.4 and the Papp A→B at 2 h, 10 μM came to 5 ×10⁻⁶ cm/s.
Turning to `CCCn1cc(C(=O)O)c(=O)c2c(N)c(F)c(NCCN[C@@H]3C[C@H]3c3ccccc3)cc21` (relative stereo) [Compound I-87], the efflux ratio at 2 h, 10 µM was 1.4 and the apparent permeability from apical to basolateral (Papp A→B) at 2 h, 10 μM came out at 4.7 ×10⁻⁶ cm/s.
On to `CCn1cc(C(=O)O)c(=O)c2c(N)c(F)c(N[C@@H]3C[C@H]3c3ccccc3)cc21` (single isomer, unassigned) [Compound I-20], for which the efflux ratio at 2 h, 10 µM was determined as 0.29 and the Papp A→B at 2 h, 10 μM worked out at 6.1 ×10⁻⁶ cm/s.
For `CCn1cc(C(=O)O)c(=O)c2cc(F)c(NC3CCCCC3)cc21` [Compound I-1] the same measures were 0.47 and 31 ×10⁻⁶ cm/s.
For `CCC(CC)n1cc(C(=O)O)c(=O)c2c(C)c(F)c(NC3CCCCC3)cc21` [Compound I-3] the same measures were 0.27 and 3.3 ×10⁻⁶ cm/s.
For the molecule `CCn1cc(C(=O)O)c(=O)c2c(N)c(F)c(NC3CCCCC3)cc21` [Compound I-7], the efflux ratio at 2 h, 10 µM amounted to 0.32 and the Papp A→B at 2 h, 10 μM amounted to 13 ×10⁻⁶ cm/s.
Consider `CCn1cc(C(=O)O)c(=O)c2c(N)c(F)c(NC3CCOCC3)cc21` [Compound I-8], for which the efflux ratio at 2 h, 10 µM came to 3.02 and the Papp A→B at 2 h, 10 μM turned out to be 11 ×10⁻⁶ cm/s.
`CCn1cc(C(=O)O)c(=O)c2c(N)c(F)c(NC3CCCC3)cc21` [Compound I-9]: the efflux ratio at 2 h, 10 µM came to 0.56 and the Papp A→B at 2 h, 10 μM came out at 3.4 ×10⁻⁶ cm/s.
Consider `CCn1cc(C(=O)O)c(=O)c2c(N)c(F)c(NC3CCc4ccccc43)cc21` (stereo not shown) [Compound I-10], for which the efflux ratio at 2 h, 10 µM came to 0.56 and the Papp A→B at 2 h, 10 μM was found to be 6.3 ×10⁻⁶ cm/s.
On to `CCn1cc(C(=O)O)c(=O)c2c(N)c(F)c(NC3Cc4ccccc4C3)cc21` [Compound I-11], for which the efflux ratio at 2 h, 10 µM worked out at 0.53 and the Papp A→B at 2 h, 10 μM worked out at 5.5 ×10⁻⁶ cm/s.
`CCn1cc(C(=O)O)c(=O)c2c(N)c(F)c(NC3CCC3)cc21` [Compound I-12]: the efflux ratio at 2 h, 10 µM turned out to be 0.72 and the Papp A→B at 2 h, 10 μM amounted to 21 ×10⁻⁶ cm/s.
For `CCn1cc(C(=O)O)c(=O)c2c(N)c(F)c(NC3CC3)cc21` [Compound I-15] the same measures were 0.48 and 38 ×10⁻⁶ cm/s.
On to `CCn1cc(C(=O)O)c(=O)c2c(N)c(F)c(Nc3ccccc3)cc21` [Compound I-16], for which the efflux ratio at 2 h, 10 µM is 0.6 and the Papp A→B at 2 h, 10 μM worked out at 17 ×10⁻⁶ cm/s.
For `CCn1cc(C(=O)O)c(=O)c2c(N)c(F)c(NCc3ccccc3)cc21` [Compound I-17] the same measures were 0.45 and 23 ×10⁻⁶ cm/s.
For `CCn1cc(C(=O)O)c(=O)c2c(N)c(F)c(NCCc3ccccc3)cc21` [Compound I-18] the same measures were 0.66 and 11 ×10⁻⁶ cm/s.
For `CCn1cc(C(=O)O)c(=O)c2c(N)c(F)c(NCCCc3ccccc3)cc21` [Compound I-19] the same measures were 0.38 and 5.9 ×10⁻⁶ cm/s.
As for `CCn1cc(C(=O)O)c(=O)c2c(N)cc(NCCCc3ccccc3)cc21` [Compound I-57], the efflux ratio at 2 h, 10 µM came to 0.4 and the Papp A→B at 2 h, 10 μM was 7.1 ×10⁻⁶ cm/s.
Regarding `CCn1cc(C(=O)O)c(=O)c2c(N)c(F)c(N[C@H]3C[C@H](c4ccccc4)C3)cc21` [Compound I-60], the efflux ratio at 2 h, 10 µM came to 0.5 and the Papp A→B at 2 h, 10 μM was 0.32 ×10⁻⁶ cm/s.
With `CCn1cc(C(=O)O)c(=O)c2c(N)c(F)c(N[C@H]3C[C@@H](c4ccccc4)C3)cc21` [Compound I-61], the efflux ratio at 2 h, 10 µM came to 0.85 and the Papp A→B at 2 h, 10 μM was found to be 0.11 ×10⁻⁶ cm/s.
